Experimental findings from patent publication US12415799B2, “Indazole-fused cyclic compound” (Zhejiang Yangli Pharmaceutical Technology Co., Ltd., priority 2020, dated 2025) are described below.

Structures are written as SMILES.

A short description of the data set: In vivo pharmacokinetics study in dogs. Also noted: species or system beagle dogs. The source says:
Experimental purposes: To test the drug concentration in plasma of beagle dogs at different times after intravenous and intragastric administration of the test compound by LC/MS/MS using beagle dogs as the experimental animals. To study the pharmacokinetics of the test compound in beagle dogs in vivo and evaluate their pharmacokinetic characteristics.
Two healthy male and two female beagle dogs were divided into two groups according to the principle of similar body weight, with one male and one female in IV group and one male and one female in PO group. Animals were purchased from Beijing Marshall Biotechnology Co., Ltd.
IV group: Appropriate number of samples were weighed and prepared into 1 mg/mL solution respectively, and the mixture was stirred and ultrasonicated to reach a clear state, and the solvent was 10% HP-β-CD, and the pH value was adjusted to 5.74.
PO group: Appropriate amount of the solution prepared in IV group was diluted to 0.2 mg/mL with 10% HP-β-CD, and the pH value was adjusted to 5.8.
Administration: After fasting overnight, IV group was administered intravenously, and the dosage of the test compound was 1 mg/kg; PO group was administered intragastrically, and the dosage of the test compound was 2 mg/kg.
After the beagle dogs in the intravenous injection group were given the test compound respectively, and 200 μL of blood was collected from the peripheral vein at 0.0833, 0.25, 0.5, 1, 2, 4, 6, 8, 12 and 24 hours, and placed in a commercialized anticoagulant tube added with EDTA-K2 in advance. After intragastric administration of the test compound, 200 μL of blood was collected from the peripheral vein at 0.25, 0.5, 1, 2, 4, 6, 8, 12 and 24 hours, respectively, and placed in a commercialized anticoagulant tube added with EDTA-K2 in advance. After centrifugation (3,200 g, 4° C., 10 minutes), the plasma was collected, transferred to a pre-cooled centrifuge tube, quickly frozen in dry ice, and stored in a refrigerator at −60° C. or lower, until LC-MS/MS analysis. Animals were allowed to eat 4 hours after administration. LC/MS/MS method was used to determine the content of the test compound in the plasma of beagle dogs after intravenous and intragastric administration. The linear range of the method was 2.00 to 2000 nM.

In general, Vdss refers to a proportionality between amount in the body and measured concentration, not a real space. Broadly, the Cmax is the highest concentration seen after dosing. `FCCCN1CC[C@H](Nc2cnc(C3=C(CC(F)(F)F)CCCc4c3ccc3[nH]nc(F)c43)cn2)C1` [Compound 11A]: for the setting “i.v. 1 mg/kg”, the AUC0-last was determined as 5.078 µM·h, the Cl is listed as 3.44 mL/min/kg, the T1/2 was 23.1 h and the Vdss stood at 6.60 L/kg. Further, for the setting “p.o. 2 mg/kg”, the AUC0-last is 7.963 µM·h, the Cmax was 495 nM and the T1/2 is 19.2 h. The F % (p.o. 2 mg/kg vs i.v. 1 mg/kg) is recorded as 78.2%.
